The target in test [1] is T1, hVR1 (Homo sapiens, UniProt Q8NER1).
T1 construct: expressed in transfected cells; host or cells: CHO K1 cells (ECACC), stably transfected
The test is described as follows: Functional test on VR1, FLIPR Ca2+ influx in transfected CHO K1 cells, capsaicin. Also on record: key to Ki (human being) [nM] Cap: agonist / partial agonist / no effect: AG=agonist; pAG=partial agonist; NE=no effect. Type of test: cell-based, human being. To be noted: for Ki: includes values given in brackets after pAG, read-out: Ki (human being) [nM] Cap.

In test [2] the target is T1, hVR1. Put plainly: Functional test on human VR1, 45° C. stimulus. Type of test: cell-based, human being. More on the design: key to IC50 (human being), 45° C.: agonist / partial agonist / no effect: AG=agonist; pAG=partial agonist; NE=no effect. The conditions noted are these: for inhibition at 2 µM: read-out: IC50 (human being), 45° C.: inhibition (as a percentage); for IC50: read-out: IC50 (human being) [nM], 45° C.

For test [3], the target named is T1, hVR1. Put plainly: Functional test on hVR1 after pH stimulus. It counts as cell-based, human being. More on the design: key to IC50 (human being) hVR1, pH: agonist / partial agonist / no effect: AG=agonist; pAG=partial agonist; NE=no effect. The conditions noted are these: for inhibition at 10 µM: read-out: IC50 (human being) hVR1, pH: inhibition (as a percentage).

For test [4], the target named is T1, hVR1. The test is described as follows: Functional test on human VR1, NADA (N-arachidonoyl dopamine) stimulus. It counts as cell-based, human being. More on the design: key to Ki (human being) NADA: agonist / partial agonist / no effect: AG=agonist; pAG=partial agonist; NE=no effect. The conditions noted are these: for Ki: includes values given in brackets after pAG, read-out: Ki (human being) [nM] NADA. An excerpt: II. Functional Tests Carried Out on the Vanilloid Receptor (VR1)
The agonistic or antagonistic effect of the substances to be tested on the vanilloid receptor 1 (VR1) can also be determined using the following assay. In this assay, the influx of Ca^2+ through the channel is quantified with the aid of a Ca^2+-sensitive dye (type Fluo-4, Molecular Probes Europe BV, Leiden, the Netherlands) in a fluorescent imaging plate reader (FLIPR, Molecular Devices, Sunnyvale, USA).
Chinese hamster ovary cells (CHO K1 cells, European Collection of Cell Cultures (ECACC) United Kingdom) are stably transfected with the VR1 gene. For functional testing, these cells are plated out on poly-D-lysine-coated black 96-well plates having a clear base (BD Biosciences, Heidelberg, Germany) at a density of 25,000 cells/well. The cells are incubated overnight at 37° C. and 5% CO2 in a culture medium (Ham's F12 nutrient mixture, 10% by volume of FCS (foetal calf serum), 18 μg/ml of L-proline). The next day the cells are incubated with Fluo-4 (Fluo-4 2 μM, 0.01% by volume of Pluronic F127, Molecular Probes in HBSS (Hank's buffered saline solution), Gibco Invitrogen GmbH, Karlsruhe, Germany) for 30 minutes at 37° C. Subsequently, the plates are washed three times with HBSS buffer and after further incubation for 15 minutes at RT used for Ca^2+ measurement in a FLIPR assay. The Ca^2+-dependent fluorescence is measured before and after the addition of the substances to be tested (λex wavelength=488 nm, λem=540 nm). Quantification is carried out by measuring the highest fluorescence intensity (FC, fluorescence counts) over time.
The FLIPR protocol consists of 2 substance additions. First the compounds to be tested (10 μM) are pipetted onto the cells and the Ca^2+ influx is compared with the control (capsaicin 10 μM) (% activation based on the Ca^2+ signal after the addition of 10 μM of capsaicin). […]
Desensitising agonists and antagonists led to suppression of the Ca^2+ influx. The % inhibition is calculated compared to the maximum achievable inhibition with 10 μM of capsaicin.
Starting from the percentage displacement caused by different concentrations of the compounds to be tested of general formula I, IC50 inhibitory concentrations which cause a 50-per cent displacement of capsaicin were calculated. Ki values for the test substances were obtained by conversion by means of the Cheng-Prusoff equation (Cheng, Prusoff; Biochem. Pharmacol. 22, 3099-3108, 1973).
NADA=N-arachidonoyl dopamine

Test [5] has as its target T2, rat-species vanilloid receptor 1 (VR1/TRPV1) (Rattus norvegicus, UniProt O35433).
T2 construct: endogenous in cells; host or cells: primary cells dissociated from rat dorsal root ganglia (DRG), cultured 2-3 days with NGF
The test is described as follows: Functional testing on the vanilloid receptor 1, FLIPR Ca2+ influx in rat DRG cells, capsaicin. Type of test: cell-based. The conditions noted are these: capsaicin (Cap); includes values given in brackets after pAG. An excerpt: I. Functional Testing Carried Out on the Vanilloid Receptor 1 (VRI/TRPV1 Receptor)
The agonistic or antagonistic effect of the substances to be tested on the rat-species vanilloid receptor 1 (VR1/TRPV1) can be determined using the following assay. In this assay, the influx of Ca^2+ through the receptor channel is quantified with the aid of a Ca^2+-sensitive dye (type Fluo-4, Molecular Probes Europe BV, Leiden, the Netherlands) in a fluorescent imaging plate reader (FLIPR, Molecular Devices, Sunnyvale, USA).
Complete medium: 50 ml HAMS F12 nutrient mixture (Gibco Invitrogen GmbH, Karlsruhe, Germany) with
10% by volume of FCS (foetal calf serum, Gibco Invitrogen GmbH, Karlsruhe, Germany, heat-inactivated);
2 mM L-glutamine (Sigma, Munich, Germany);
1% by weight of AA solution (antibiotic/antimyotic solution, PAA, Pasching, Austria) and 25 ng/ml NGF medium (2.5 S, Gibco Invitrogen GmbH, Karlsruhe, Germany)
Cell culture plate: Poly-D-lysine-coated, black 96-well plates having a clear base (96-well black/clear plate, BD Biosciences, Heidelberg, Germany) are additionally coated with laminin (Gibco Invitrogen GmbH, Karlsruhe, Germany), the laminin being diluted with PBS (Ca—Mg-free PBS, Gibco Invitrogen GmbH, Karlsruhe, Germany) to a concentration of 100 μg/ml. Aliquots having a laminin concentration of 100 μg/ml are removed and stored at −20° C. The aliquots are diluted with PBS in a ratio of 1:10 to 10 μg/ml of laminin and respectively 50 μL of the solution are pipetted into a recess in the cell culture plate. The cell culture plates are incubated for at least two hours at 37° C., the excess solution is removed by suction and the recesses are each washed twice with PBS. The coated cell culture plates are stored with excess PBS which is not removed until just before the feeding of the cells.
Preparation of the Cells:
The vertebral column is removed from decapitated rats and placed immediately into cold HBSS buffer (Hank's buffered saline solution, Gibco Invitrogen GmbH, Karlsruhe, Germany), i.e. buffer located in an ice bath, mixed with 1% by volume (per cent by volume) of an AA solution (antibiotic/antimyotic solution, PAA, Pasching, Austria). The vertebral column is cut longitudinally and removed together with fasciae from the vertebral canal. Subsequently, the dorsal root ganglia (DRG) are removed and again stored in cold HBSS buffer mixed with 1% by volume of an AA solution. The DRG, from which all blood remnants and spinal nerves have been removed, are transferred in each case to 500 μL of cold type 2 collagenase (PAA, Pasching, Austria) and incubated for 35 minutes at 37° C. After the addition of 2.5% by volume of trypsin (PAA, Pasching, Austria), incubation is continued for 10 minutes at 37° C. After complete incubation, the enzyme solution is carefully pipetted off and 500 μL of complete medium are added to each of the remaining DRG. The DRG are respectively suspended several times, drawn through cannulae No. 1, No. 12 and No. 16 using a syringe and transferred to a 50 ml Falcon tube which is filled up to 15 ml with complete medium. The contents of each Falcon tube are respectively filtered through a 70 μm Falcon filter element and centrifuged for 10 minutes at 1,200 rpm and RT. The resulting pellet is respectively taken up in 250 μL of complete medium and the cell count is determined.
The number of cells in the suspension is set to 3×10^5 per ml and 150 μL of this suspension are in each case introduced into a recess in the cell culture plates coated as described hereinbefore. In the incubator the plates are left for two to three days at 37° C., 5% by volume of CO2 and 95% relative humidity. […]

The values below come from patent US8334315B2, “Substituted aromatic carboxamide and urea derivatives as vanilloid receptor ligands” (Gruenenthal GmbH, priority 2009, dated 2012).

T1 sequence (Q8NER1 whole entry): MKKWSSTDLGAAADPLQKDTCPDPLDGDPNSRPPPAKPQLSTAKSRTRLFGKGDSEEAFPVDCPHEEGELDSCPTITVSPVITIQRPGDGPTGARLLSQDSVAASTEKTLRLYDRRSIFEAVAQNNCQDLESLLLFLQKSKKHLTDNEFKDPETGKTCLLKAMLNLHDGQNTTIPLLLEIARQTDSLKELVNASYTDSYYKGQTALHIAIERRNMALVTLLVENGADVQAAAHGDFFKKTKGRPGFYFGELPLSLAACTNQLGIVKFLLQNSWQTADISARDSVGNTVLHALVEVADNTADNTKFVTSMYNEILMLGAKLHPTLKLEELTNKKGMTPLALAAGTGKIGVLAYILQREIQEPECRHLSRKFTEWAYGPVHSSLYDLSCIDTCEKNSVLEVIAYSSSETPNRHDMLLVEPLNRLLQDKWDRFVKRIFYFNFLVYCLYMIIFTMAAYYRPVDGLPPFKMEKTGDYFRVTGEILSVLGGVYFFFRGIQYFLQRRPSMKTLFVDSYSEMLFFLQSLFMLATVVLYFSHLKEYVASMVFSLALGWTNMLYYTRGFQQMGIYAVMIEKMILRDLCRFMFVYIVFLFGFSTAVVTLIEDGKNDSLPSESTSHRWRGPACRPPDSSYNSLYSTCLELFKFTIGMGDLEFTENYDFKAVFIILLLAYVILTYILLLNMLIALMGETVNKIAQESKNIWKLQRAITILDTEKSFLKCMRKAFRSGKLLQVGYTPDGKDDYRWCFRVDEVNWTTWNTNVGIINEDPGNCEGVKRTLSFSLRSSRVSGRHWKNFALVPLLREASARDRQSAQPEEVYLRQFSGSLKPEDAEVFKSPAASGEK
T2 sequence (O35433 whole entry): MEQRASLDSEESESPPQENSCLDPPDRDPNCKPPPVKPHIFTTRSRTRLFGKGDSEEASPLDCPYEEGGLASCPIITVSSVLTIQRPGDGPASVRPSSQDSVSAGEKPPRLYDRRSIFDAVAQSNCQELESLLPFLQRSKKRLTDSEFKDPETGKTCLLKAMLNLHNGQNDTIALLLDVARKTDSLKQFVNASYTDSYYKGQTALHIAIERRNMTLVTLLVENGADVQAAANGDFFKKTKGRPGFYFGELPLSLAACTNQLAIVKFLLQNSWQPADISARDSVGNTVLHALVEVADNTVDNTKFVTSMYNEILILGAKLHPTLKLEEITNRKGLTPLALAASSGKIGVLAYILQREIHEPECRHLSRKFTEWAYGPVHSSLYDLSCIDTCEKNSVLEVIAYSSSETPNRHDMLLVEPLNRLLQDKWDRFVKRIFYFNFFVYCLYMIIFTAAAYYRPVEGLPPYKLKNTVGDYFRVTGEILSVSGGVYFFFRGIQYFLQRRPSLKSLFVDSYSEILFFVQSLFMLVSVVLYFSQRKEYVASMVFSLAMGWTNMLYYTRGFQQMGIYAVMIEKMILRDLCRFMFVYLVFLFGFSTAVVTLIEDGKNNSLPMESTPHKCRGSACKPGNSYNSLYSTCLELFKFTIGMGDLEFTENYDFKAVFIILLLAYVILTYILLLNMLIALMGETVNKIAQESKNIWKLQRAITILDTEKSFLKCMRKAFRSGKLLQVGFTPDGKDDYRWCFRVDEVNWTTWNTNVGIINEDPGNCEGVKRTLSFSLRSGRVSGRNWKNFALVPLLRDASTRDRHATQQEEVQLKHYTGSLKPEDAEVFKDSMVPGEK

For the compound `CC(C(=O)NCc1cc(C(C)(C)C)nn1-c1cccc(Cl)c1)c1ccc2c(c1)CCN2S(C)(=O)=O` (centres unmarked) [Example 10, N-((3-tert-butyl-1-(3-chlorophenyl)-1H-pyrazol-5-yl)methyl)-2-(1-(methylsulphonyl)indolin-5-yl)propanamide], the “Ki (human being) [nM] Cap: agonist / partial agonist / no effect” value at hVR1 [1] is “pAG”. The inhibition constant Ki at hVR1 [1] (capsaicin (Cap)) came out at 75.4 nM. Moreover, the inhibition at 2 µM on hVR1 [2] came out at 6%. Also, on hVR1 [3], the inhibition at 10 µM is 42%. Besides, at hVR1 [4], the “Ki (human being) NADA: agonist / partial agonist / no effect” value is reported as “pAG”.

For the compound `CC(C)(C)c1cc(CNC(=O)Cc2ccc3c(c2)OCCO3)n(-c2ccc(Cl)cc2)n1` [Example 12, N-((3-tert-butyl-1-(4-chlorophenyl)-1H-pyrazol-5-yl)methyl)-2-(2,3-dihydrobenzo[b][1,4]dioxin-6-yl)acetamide], the inhibition constant (Ki) is 135 nM in test [5] and 77.9 nM on hVR1 [1] (capsaicin (Cap)). Besides, the inhibition at 2 µM on hVR1 [2] is 18%; on hVR1 [4] (@ 2 μM, read-out: Ki (human being) NADA column: inhibition (as a percentage)) it was 58%.

Consider `CC(C(=O)NCc1cc(C(C)(C)C)nn1-c1cccc(Cl)c1)c1ccc2ocnc2c1` (centres unmarked) [Example 40, 2-(benzo[d]oxazol-5-yl)-N-((3-tert-butyl-1-(3-chlorophenyl)-1H-pyrazol-5-yl)methyl)propanamide], for which the Ki in test [5] was determined as 8.4 nM; at hVR1 [1] (capsaicin (Cap)), 4.2 nM; at hVR1 [4], 1.1 nM.

In the case of `CC(C(=O)NCc1cc(C(C)(C)C)nn1-c1cccc(Cl)c1)c1ccc2cc(O)ccc2c1` (centres unmarked) [Example 49, N-((3-tert-butyl-1-(3-chlorophenyl)-1H-pyrazol-5-yl)methyl)-2-(6-hydroxynaphthalen-2-yl)propanamide], the “Ki (human being) [nM] Cap: agonist / partial agonist / no effect” value at hVR1 [1] is “AG”. Also, the “IC50 (human being), 45° C.: agonist / partial agonist / no effect” value on hVR1 [2] is “AG”. Besides, the “IC50 (human being) hVR1, pH: agonist / partial agonist / no effect” value at hVR1 [3] was “AG”. In addition, the “Ki (human being) NADA: agonist / partial agonist / no effect” value at hVR1 [4] is on record as “AG”.

Turning to `CC(C(=O)NCc1cc(C(F)(F)F)nn1-c1ccc(Cl)cc1)c1cccc2cnccc12` (centres unmarked) [Example 68, N-((1-(4-chlorophenyl)-3-(trifluoromethyl)-1H-pyrazol-5-yl)methyl)-2-(isoquinolin-5-yl)propanamide], the inhibitory constant (Ki) on hVR1 [1] (capsaicin (Cap)) was 0.3 nM; at hVR1 [4] it was 0.04 nM. On hVR1 [2], the concentration for half-maximal inhibition (IC50) came out at 245 nM. Moreover, at hVR1 [3], the inhibition at 10 µM amounted to 33%.

Regarding `CC(C(=O)NCc1cc(C(C)(C)C)nn1-c1cccc(Cl)c1)c1ccc2cccnc2c1` (centres unmarked) [Example 71, N-((3-tert-butyl-1-(3-chlorophenyl)-1H-pyrazol-5-yl)methyl)-2-(quinolin-7-yl)propanamide], the inhibition at 10 µM on hVR1 [1] (CHO-K1, @ 10 μM, capsaicin (Cap), read-out: Ki (human being) Cap column: inhibition (as a percentage)) was 18%. Further, at hVR1 [2], the concentration for half-maximal inhibition (IC50) stood at 2710 nM. For the same compound, at hVR1 [4], the Ki was 68.1 nM.

With `CC(C)(C)c1cc(CNC(=O)Nc2cccc3cnccc23)n(-c2cccc(Cl)c2)n1` [Example 109, 1-((3-tert-butyl-1-(3-chlorophenyl)-1H-pyrazol-5-yl)methyl)-3-(isoquinolin-5-yl)urea], on hVR1 [1], the “Ki (human being) [nM] Cap: agonist / partial agonist / no effect” value is “pAG”. On hVR1 [1] (capsaicin (Cap)), the Ki stood at 0.2 nM. Moreover, the “IC50 (human being), 45° C.: agonist / partial agonist / no effect” value at hVR1 [2] is “pAG”. For the same compound, the “IC50 (human being) hVR1, pH: agonist / partial agonist / no effect” value at hVR1 [3] is “pAG”. The “Ki (human being) NADA: agonist / partial agonist / no effect” value at hVR1 [4] was “pAG”.

For `CC(C)(C)c1cc(CNC(=O)Nc2cccc3ncccc23)n(-c2cccc(Cl)c2)n1` [Example 111, 1-((3-tert-butyl-1-(3-chlorophenyl)-1H-pyrazol-5-yl)methyl)-3-(quinolin-5-yl)urea], on hVR1 [1], the “Ki (human being) [nM] Cap: agonist / partial agonist / no effect” value is recorded as “AG”. Besides, the “IC50 (human being), 45° C.: agonist / partial agonist / no effect” value on hVR1 [2] is listed as “AG”. Also, at hVR1 [3], the “IC50 (human being) hVR1, pH: agonist / partial agonist / no effect” value is listed as “AG”. Moreover, at hVR1 [4], the “Ki (human being) NADA: agonist / partial agonist / no effect” value was “AG”.

As to `CC(C)(C)c1cc(CNC(=O)Nc2cncc3ccccc23)n(-c2cccc(Cl)c2)n1` [Example 112, 1-((3-tert-butyl-1-(3-chlorophenyl)-1H-pyrazol-5-yl)methyl)-3-(isoquinolin-4-yl)urea], the inhibition constant (Ki) turned out to be 18.2 nM in test [5], 7.3 nM at hVR1 [1] (capsaicin (Cap)) and 6.4 nM on hVR1 [4]. The “Ki (human being) NADA: agonist / partial agonist / no effect” value on hVR1 [4] is on record as “pAG”.

For `CC(C)(C)c1cc(CNC(=O)Nc2cnc3ccccc3c2)n(-c2cccc(Cl)c2)n1` [Example 113, 1-((3-tert-butyl-1-(3-chlorophenyl)-1H-pyrazol-5-yl)methyl)-3-(quinolin-3-yl)urea], the figures for the inhibition constant Ki on hVR1 [1] (capsaicin (Cap)) and on hVR1 [4] were 70.7 nM and 33.3 nM, respectively.
